The results in this text go back to patent US20260125382A1, “COMPOUNDS FOR INHIBITING OR DEGRADING CDK2 AND/OR CDK9 AND MEDICINAL USE THEREOF” (KOREA RESEARCH INSTITUTE OF CHEMICAL TECHNOLOGY, priority 2022, published 2026).

One assay has as its target T1, CDK2 (Homo sapiens, UniProt P24941).
T1 construct: endogenous in cells; host or cells: MDA-MB-231
Kind of assay: CDK protein degradation activity (Western blotting), CDK2. The format is cell-based. The note with it: MDA-MB-231 cells, 16 hours, Western blot. The method, boiled down:
(§1)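 Protein levels were read by Western blot densitometry, tubulin serving as loading reference. Beforehand, MDA-MB-231 cells had been exposed for 16 hours to 100 nM, 1 μM or 10 μM compound, DMSO as control.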
On the technique in general: In western blotting, separated proteins are transferred to a membrane and probed.

Another assay addresses T2, CDK9 (Homo sapiens, UniProt P50750).
T2 construct: endogenous in cells; host or cells: MDA-MB-231
Kind of assay: CDK protein degradation activity (Western blotting), CDK9. The format is cell-based. Conditions: MDA-MB-231 cells, 16 hours, Western blot. The method, boiled down:
as §1

T2 sequence (P50750 whole entry): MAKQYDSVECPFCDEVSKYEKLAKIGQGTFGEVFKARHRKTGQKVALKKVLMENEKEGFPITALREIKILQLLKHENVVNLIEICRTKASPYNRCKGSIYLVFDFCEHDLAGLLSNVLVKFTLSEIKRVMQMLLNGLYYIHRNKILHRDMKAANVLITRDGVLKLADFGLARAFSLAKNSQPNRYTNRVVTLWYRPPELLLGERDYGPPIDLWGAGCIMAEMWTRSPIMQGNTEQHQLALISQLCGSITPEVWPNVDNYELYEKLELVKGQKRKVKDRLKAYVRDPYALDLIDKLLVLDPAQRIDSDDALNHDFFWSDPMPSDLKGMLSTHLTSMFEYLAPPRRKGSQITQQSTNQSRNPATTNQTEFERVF

On to `O=C1CCC(c2ccc(OCC(=O)N3CCC(CCN4CCN(c5ccc(Nc6ncnc7c6ncn7[C@H]6C[C@@H](NC(=O)c7c(Cl)cccc7Cl)C6)cc5)CC4)CC3)cc2)C(=O)N1` (stereo partly drawn) [Compound 434, 2,6-dichloro-N-((1s,3s)-3-(6-((4-(4-(2-(1-(2-(4-(2,6-dioxopiperidin-3-yl)phenoxy)acetyl)piperidin-4-yl)ethyl)piperazin-1-yl)phenyl)amino)-9H-purin-9-yl)cyclobutyl)benzamide], for which, at CDK2, the “Enzyme degradation CDK2 (% remaining) @ 0.1 μM” value came to 50%, the “Enzyme degradation CDK2 (% remaining) @ 1 μM” value is 70% and the “Enzyme degradation CDK2 (% remaining) @ 10 μM” value turned out to be 80%. Also, on CDK9, the “Enzyme degradation CDK9 (% remaining) @ 0.1 μM” value was 10/10/10%, the “Enzyme degradation CDK9 (% remaining) @ 1 μM” value is given as 10/10/10% and the “Enzyme degradation CDK9 (% remaining) @ 10 μM” value is 10/10/10%.
For the molecule “2,6-dichloro-N-((1s,3s)-3-(6-((4-(4-((4-(1-(2-(2,6-dioxopiperidin-3-yl)-1,3-dioxoisoindolin-5-yl)azetidin-3-carbonyl)piperazin-1-yl)methyl)piperidin-1-yl)phenyl)amino)-9H-purin-9-yl)cyclobutyl)benzamide [Compound 473]”, on CDK2, the “Enzyme degradation CDK2 (% remaining) @ 0.1 μM” value is 20/20/20%, the “Enzyme degradation CDK2 (% remaining) @ 1 μM” value was 20/20/20% and the “Enzyme degradation CDK2 (% remaining) @ 10 μM” value was 20/20/20%. Also, on CDK9, the “Enzyme degradation CDK9 (% remaining) @ 0.1 μM” value is 10/10/10%, the “Enzyme degradation CDK9 (% remaining) @ 1 μM” value is 10/10/10% and the “Enzyme degradation CDK9 (% remaining) @ 10 μM” value is reported as 10/10/10%.
For the molecule `O=C1CC[C@@H](c2cccc(OCC(=O)N3CCC(CC(=O)N4CCN(c5ccc(Nc6ncnc7c6ncn7[C@H]6C[C@@H](NC(=O)Cc7ccccc7)C6)cc5)CC4)CC3)c2)C(=O)N1` [Compound 227, N-((1s,3s)-3-(6-((4-(4-(2-(1-(2-(3-(2,6-dioxopiperidin-3-yl)phenoxy)acetyl)piperidin-4-yl)acetyl)piperazin-1-yl)phenyl)amino)-9H-purin-9-yl)cyclobutyl)-2-phenylacetamide], on CDK2, the “Enzyme degradation CDK2 (% remaining) @ 0.1 μM” value came to 50%, the “Enzyme degradation CDK2 (% remaining) @ 1 μM” value is 20% and the “Enzyme degradation CDK2 (% remaining) @ 10 μM” value came out at 70%. Moreover, on CDK9, the “Enzyme degradation CDK9 (% remaining) @ 0.1 μM” value is 60%, the “Enzyme degradation CDK9 (% remaining) @ 1 μM” value is 70% and the “Enzyme degradation CDK9 (% remaining) @ 10 μM” value stood at 10%.
With `Cc1cccc(C(=O)N[C@H]2C[C@@H](n3cnc4c(NCc5ccc(OCCCN6CCN(C(=O)COc7ccc8c(c7)C(=O)N([C@H]7CCC(=O)NC7=O)C8=O)CC6)cc5)ncnc43)C2)n1` [Compound 112, N-((1s,3s)-3-(6-((4-(3-(4-(2-((2-(2,6-dioxopiperidin-3-yl)-1,3-dioxoisoindolin-5-yl)oxy)acetyl)piperazin-1-yl)propoxy)benzyl)amino)-9H-purin-9-yl)cyclobutyl)-6-methylpicolinamide], at CDK2, the “Enzyme degradation CDK2 (% remaining) @ 0.1 μM” value was 100%, the “Enzyme degradation CDK2 (% remaining) @ 1 μM” value amounted to 50% and the “Enzyme degradation CDK2 (% remaining) @ 10 μM” value came out at 40%. At CDK9, the “Enzyme degradation CDK9 (% remaining) @ 0.1 μM” value is 100%, the “Enzyme degradation CDK9 (% remaining) @ 1 μM” value is 0% and the “Enzyme degradation CDK9 (% remaining) @ 10 μM” value amounted to 0%.
For `Cc1cccc(C(=O)N[C@H]2C[C@@H](n3cnc4c(Nc5ccc(N6CCN(CCC7CCN(c8ccc9nnn([C@H]%10CCC(=O)NC%10=O)c(=O)c9c8)CC7)CC6)cc5)ncnc43)C2)n1` [Compound 382, N-((1s,3s)-3-(6-((4-(4-(2-(1-(3-(2,6-dioxopiperidin-3-yl)-4-oxo-3,4-dihydrobenzo[d][1,2,3]triazin-6-yl)piperidin-4-yl)ethyl)piperazin-1-yl)phenyl)amino)-9H-purin-9-yl)cyclobutyl)-6-methylpicolinamide], at CDK2, the “Enzyme degradation CDK2 (% remaining) @ 0.1 μM” value is reported as 30%, the “Enzyme degradation CDK2 (% remaining) @ 1 μM” value amounted to 30% and the “Enzyme degradation CDK2 (% remaining) @ 10 μM” value was determined as 50%. In addition, at CDK9, the “Enzyme degradation CDK9 (% remaining) @ 0.1 μM” value is recorded as 0/0/0%, the “Enzyme degradation CDK9 (% remaining) @ 1 μM” value was 0/0/0% and the “Enzyme degradation CDK9 (% remaining) @ 10 μM” value is listed as 0/0/0%.
